ChEMBL document CHEMBL4507287, “Data for DCP probe MRL-650” (2021)

How the values were obtained:
[1] = target: LIM domain kinase 2 (Homo sapiens) (UniProt P53671); conditions: Compound concentration 1000.0 nM
[2] = target: Mast/stem cell growth factor receptor Kit (Homo sapiens) (UniProt P10721); conditions: Compound concentration 1000.0 nM
[3] = target: RAC-alpha serine/threonine-protein kinase (Homo sapiens) (UniProt P31749); conditions: Compound concentration 1000.0 nM
[4] = system: Fibroblast growth factor receptor 3 (Homo sapiens), P22607 [G697C]; conditions: Compound concentration 1000.0 nM
[5] = target: Serine/threonine-protein kinase N1 (Homo sapiens) (UniProt Q16512); conditions: Compound concentration 1000.0 nM
[6] = system: Receptor-type tyrosine-protein kinase FLT3 (Homo sapiens), P36888 [R834Q]; conditions: Compound concentration 1000.0 nM
[7] = target: Mitogen-activated protein kinase kinase kinase 2 (Homo sapiens) (UniProt Q9Y2U5); conditions: Compound concentration 1000.0 nM
[8] = target: LIM domain kinase 1 (Homo sapiens) (UniProt P53667); conditions: Compound concentration 1000.0 nM
[9] = target: Wee1-like protein kinase (Homo sapiens) (UniProt P30291); conditions: Compound concentration 1000.0 nM
[10] = target: Serine/threonine-protein kinase Nek4 (Homo sapiens) (UniProt P51957); conditions: Compound concentration 1000.0 nM
[11] = target: Casein kinase I isoform epsilon (Homo sapiens) (UniProt P49674); conditions: Compound concentration 1000.0 nM
[12] = target: Insulin receptor (Homo sapiens) (UniProt P06213); conditions: Compound concentration 1000.0 nM
[13] = target: Serine/threonine-protein kinase WNK1 (Homo sapiens) (UniProt Q9H4A3); conditions: Compound concentration 1000.0 nM
[14] = target: Tyrosine-protein kinase ZAP-70 (Homo sapiens) (UniProt P43403); conditions: Compound concentration 1000.0 nM
[15] = target: G protein-coupled receptor kinase 4 (Homo sapiens) (UniProt P32298); conditions: Compound concentration 1000.0 nM
[16] = target: Phosphatidylinositol 4,5-bisphosphate 3-kinase catalytic subunit delta isoform (Homo sapiens) (UniProt O00329); conditions: Compound concentration 1000.0 nM
[17] = system: Mast/stem cell growth factor receptor Kit (Homo sapiens), P10721 [D816V]; conditions: Compound concentration 1000.0 nM
[18] = target: Interleukin-1 receptor-associated kinase 3 (Homo sapiens) (UniProt Q9Y616); conditions: Compound concentration 1000.0 nM
[19] = target: Calcium/calmodulin-dependent protein kinase type II subunit delta (Homo sapiens) (UniProt Q13557); conditions: Compound concentration 1000.0 nM
[20] = target: Serine/threonine-protein kinase STK11 (Homo sapiens) (UniProt Q15831); conditions: Compound concentration 1000.0 nM
[21] = target: Tyrosine-protein kinase BTK (Homo sapiens) (UniProt Q06187); conditions: Compound concentration 1000.0 nM
[22] = target: Mitogen-activated protein kinase kinase kinase 6 (Homo sapiens) (UniProt O95382); conditions: Compound concentration 1000.0 nM
[23] = target: Serine/threonine-protein kinase PAK 6 (Homo sapiens) (UniProt Q9NQU5); conditions: Compound concentration 1000.0 nM
[24] = target: Alpha-1B adrenergic receptor (Homo sapiens) (UniProt P35368); conditions: Compound concentration 10.0 uM
[25] = target: Rho-associated protein kinase 2 (Homo sapiens) (UniProt O75116); conditions: Compound concentration 1000.0 nM
[26] = target: Serine/threonine-protein kinase LATS2 (Homo sapiens) (UniProt Q9NRM7); conditions: Compound concentration 1000.0 nM
[27] = target: Serine/threonine-protein kinase MRCK alpha (Homo sapiens) (UniProt Q5VT25); conditions: Compound concentration 1000.0 nM
[28] = target: Casein kinase I isoform alpha-like (Homo sapiens) (UniProt Q8N752); conditions: Compound concentration 1000.0 nM
[29] = target: Serine/threonine-protein kinase haspin (Homo sapiens) (UniProt Q8TF76); conditions: Compound concentration 1000.0 nM
[30] = system: Tyrosine-protein kinase ABL1 (Homo sapiens), P00519 [E255K]; conditions: Compound concentration 1000.0 nM
[31] = target: Casein kinase I isoform delta (Homo sapiens) (UniProt P48730); conditions: Compound concentration 1000.0 nM
[32] = target: Cyclin-dependent kinase 9 (Homo sapiens) (UniProt P50750); conditions: Compound concentration 1000.0 nM
[33] = target: Serine/threonine-protein kinase 24 (Homo sapiens) (UniProt Q9Y6E0); conditions: Compound concentration 1000.0 nM
[34] = target: Serine/threonine-protein kinase ULK2 (Homo sapiens) (UniProt Q8IYT8); conditions: Compound concentration 1000.0 nM
[35] = target: Rhodopsin kinase GRK7 (Homo sapiens) (UniProt Q8WTQ7); conditions: Compound concentration 1000.0 nM
[36] = target: Dual specificity mitogen-activated protein kinase kinase 4 (Homo sapiens) (UniProt P45985); conditions: Compound concentration 1000.0 nM
[37] = target: cAMP-dependent protein kinase catalytic subunit PRKX (Homo sapiens) (UniProt P51817); conditions: Compound concentration 1000.0 nM
[38] = target: Cyclin-dependent kinase 14 (Homo sapiens) (UniProt O94921); conditions: Compound concentration 1000.0 nM
[39] = target: Mitogen-activated protein kinase 13 (Homo sapiens) (UniProt O15264); conditions: Compound concentration 1000.0 nM
[40] = target: Tyrosine-protein kinase Mer (Homo sapiens) (UniProt Q12866); conditions: Compound concentration 1000.0 nM
[41] = target: Serine/threonine-protein kinase PLK1 (Homo sapiens) (UniProt P53350); conditions: Compound concentration 1000.0 nM
[42] = target: Mitogen-activated protein kinase 1 (Homo sapiens) (UniProt P28482); conditions: Compound concentration 1000.0 nM
[43] = target: NUAK family SNF1-like kinase 2 (Homo sapiens) (UniProt Q9H093); conditions: Compound concentration 1000.0 nM
[44] = target: Dual specificity mitogen-activated protein kinase kinase 1 (Homo sapiens) (UniProt Q02750); conditions: Compound concentration 1000.0 nM
[45] = target: Ribosomal protein S6 kinase alpha-3 (Homo sapiens) (UniProt P51812); conditions: Compound concentration 1000.0 nM

Serine/threonine-protein kinase PLK1 (Homo sapiens), sequence (P53350 whole entry): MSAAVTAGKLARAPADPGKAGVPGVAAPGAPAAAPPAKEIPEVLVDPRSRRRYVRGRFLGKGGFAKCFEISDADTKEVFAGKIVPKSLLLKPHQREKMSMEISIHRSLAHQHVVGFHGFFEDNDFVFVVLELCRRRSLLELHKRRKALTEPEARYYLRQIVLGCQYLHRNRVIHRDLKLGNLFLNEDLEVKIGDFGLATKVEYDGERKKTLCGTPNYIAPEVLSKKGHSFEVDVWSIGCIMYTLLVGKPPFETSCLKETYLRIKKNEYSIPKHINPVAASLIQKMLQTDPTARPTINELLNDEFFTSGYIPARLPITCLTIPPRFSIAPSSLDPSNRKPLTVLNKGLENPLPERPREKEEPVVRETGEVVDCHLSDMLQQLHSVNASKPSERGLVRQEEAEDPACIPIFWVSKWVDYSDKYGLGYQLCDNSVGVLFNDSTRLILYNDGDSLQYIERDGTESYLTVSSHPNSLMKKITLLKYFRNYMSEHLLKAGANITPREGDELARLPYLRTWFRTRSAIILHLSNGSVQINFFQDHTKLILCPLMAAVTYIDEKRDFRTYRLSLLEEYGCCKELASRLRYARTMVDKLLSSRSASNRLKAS
RAC-alpha serine/threonine-protein kinase (Homo sapiens), sequence (P31749 whole entry): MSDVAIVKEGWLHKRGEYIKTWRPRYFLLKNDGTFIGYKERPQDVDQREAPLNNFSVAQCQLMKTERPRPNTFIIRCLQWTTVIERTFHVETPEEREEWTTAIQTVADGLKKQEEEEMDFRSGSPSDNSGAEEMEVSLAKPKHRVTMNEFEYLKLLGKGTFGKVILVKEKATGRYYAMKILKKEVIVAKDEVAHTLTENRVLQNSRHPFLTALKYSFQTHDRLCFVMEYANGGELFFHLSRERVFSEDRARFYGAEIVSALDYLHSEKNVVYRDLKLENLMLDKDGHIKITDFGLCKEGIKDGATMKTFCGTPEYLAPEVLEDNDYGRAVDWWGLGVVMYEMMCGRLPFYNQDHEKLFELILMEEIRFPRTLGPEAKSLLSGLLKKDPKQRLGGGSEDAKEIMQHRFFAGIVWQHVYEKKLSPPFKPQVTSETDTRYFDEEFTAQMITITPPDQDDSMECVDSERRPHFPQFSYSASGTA
Casein kinase I isoform delta (Homo sapiens), sequence (P48730 whole entry, looked up, canonical isoform): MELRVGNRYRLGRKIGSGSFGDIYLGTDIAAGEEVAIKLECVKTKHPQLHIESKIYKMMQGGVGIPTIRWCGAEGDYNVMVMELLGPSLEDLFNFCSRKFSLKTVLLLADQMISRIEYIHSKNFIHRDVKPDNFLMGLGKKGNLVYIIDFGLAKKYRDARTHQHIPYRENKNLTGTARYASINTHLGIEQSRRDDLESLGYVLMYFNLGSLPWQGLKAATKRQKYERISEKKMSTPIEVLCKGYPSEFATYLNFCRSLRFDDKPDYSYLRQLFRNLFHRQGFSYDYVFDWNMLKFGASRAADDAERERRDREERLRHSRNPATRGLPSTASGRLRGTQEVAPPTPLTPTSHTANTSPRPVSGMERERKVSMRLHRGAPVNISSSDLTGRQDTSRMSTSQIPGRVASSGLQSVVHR
Mast/stem cell growth factor receptor Kit (Homo sapiens), sequence (P10721 whole entry): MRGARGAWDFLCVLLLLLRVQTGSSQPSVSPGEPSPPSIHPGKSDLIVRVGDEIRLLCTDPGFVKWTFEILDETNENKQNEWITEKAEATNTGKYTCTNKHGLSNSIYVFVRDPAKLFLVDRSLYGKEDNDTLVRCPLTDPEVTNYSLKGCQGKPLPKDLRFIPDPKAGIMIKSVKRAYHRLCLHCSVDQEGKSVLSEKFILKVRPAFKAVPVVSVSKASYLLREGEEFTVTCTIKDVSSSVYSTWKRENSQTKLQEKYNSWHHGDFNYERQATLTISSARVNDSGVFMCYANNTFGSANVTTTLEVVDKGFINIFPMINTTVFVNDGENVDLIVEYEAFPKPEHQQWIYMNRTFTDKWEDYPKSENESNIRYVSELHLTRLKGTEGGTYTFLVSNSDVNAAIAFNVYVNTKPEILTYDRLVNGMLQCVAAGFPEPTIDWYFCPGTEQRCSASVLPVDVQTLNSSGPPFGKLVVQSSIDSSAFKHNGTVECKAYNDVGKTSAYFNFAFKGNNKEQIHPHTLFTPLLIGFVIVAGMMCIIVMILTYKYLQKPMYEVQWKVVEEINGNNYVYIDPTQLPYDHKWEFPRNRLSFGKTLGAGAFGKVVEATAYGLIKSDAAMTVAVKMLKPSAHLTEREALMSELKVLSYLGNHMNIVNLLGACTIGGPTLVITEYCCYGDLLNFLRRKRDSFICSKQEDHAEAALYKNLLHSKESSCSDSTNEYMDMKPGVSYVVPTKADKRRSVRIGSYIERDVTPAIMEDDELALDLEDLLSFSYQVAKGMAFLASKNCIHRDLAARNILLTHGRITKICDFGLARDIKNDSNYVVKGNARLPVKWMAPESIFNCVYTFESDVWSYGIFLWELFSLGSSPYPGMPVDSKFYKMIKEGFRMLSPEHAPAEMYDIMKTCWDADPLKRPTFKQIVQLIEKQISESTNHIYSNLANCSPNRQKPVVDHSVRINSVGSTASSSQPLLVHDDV
Mitogen-activated protein kinase 13 (Homo sapiens), sequence (O15264 whole entry): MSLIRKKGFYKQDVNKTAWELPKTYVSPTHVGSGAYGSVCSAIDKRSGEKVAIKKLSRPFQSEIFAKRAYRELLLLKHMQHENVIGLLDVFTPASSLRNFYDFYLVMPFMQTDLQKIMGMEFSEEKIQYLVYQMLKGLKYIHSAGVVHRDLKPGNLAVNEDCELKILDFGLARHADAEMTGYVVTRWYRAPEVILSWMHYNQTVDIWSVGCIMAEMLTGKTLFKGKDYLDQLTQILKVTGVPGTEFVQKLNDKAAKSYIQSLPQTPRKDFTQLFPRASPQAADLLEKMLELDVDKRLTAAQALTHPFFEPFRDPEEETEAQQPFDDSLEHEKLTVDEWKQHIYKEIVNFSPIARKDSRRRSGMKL
Phosphatidylinositol 4,5-bisphosphate 3-kinase catalytic subunit delta isoform (Homo sapiens), sequence (O00329 whole entry, canonical isoform): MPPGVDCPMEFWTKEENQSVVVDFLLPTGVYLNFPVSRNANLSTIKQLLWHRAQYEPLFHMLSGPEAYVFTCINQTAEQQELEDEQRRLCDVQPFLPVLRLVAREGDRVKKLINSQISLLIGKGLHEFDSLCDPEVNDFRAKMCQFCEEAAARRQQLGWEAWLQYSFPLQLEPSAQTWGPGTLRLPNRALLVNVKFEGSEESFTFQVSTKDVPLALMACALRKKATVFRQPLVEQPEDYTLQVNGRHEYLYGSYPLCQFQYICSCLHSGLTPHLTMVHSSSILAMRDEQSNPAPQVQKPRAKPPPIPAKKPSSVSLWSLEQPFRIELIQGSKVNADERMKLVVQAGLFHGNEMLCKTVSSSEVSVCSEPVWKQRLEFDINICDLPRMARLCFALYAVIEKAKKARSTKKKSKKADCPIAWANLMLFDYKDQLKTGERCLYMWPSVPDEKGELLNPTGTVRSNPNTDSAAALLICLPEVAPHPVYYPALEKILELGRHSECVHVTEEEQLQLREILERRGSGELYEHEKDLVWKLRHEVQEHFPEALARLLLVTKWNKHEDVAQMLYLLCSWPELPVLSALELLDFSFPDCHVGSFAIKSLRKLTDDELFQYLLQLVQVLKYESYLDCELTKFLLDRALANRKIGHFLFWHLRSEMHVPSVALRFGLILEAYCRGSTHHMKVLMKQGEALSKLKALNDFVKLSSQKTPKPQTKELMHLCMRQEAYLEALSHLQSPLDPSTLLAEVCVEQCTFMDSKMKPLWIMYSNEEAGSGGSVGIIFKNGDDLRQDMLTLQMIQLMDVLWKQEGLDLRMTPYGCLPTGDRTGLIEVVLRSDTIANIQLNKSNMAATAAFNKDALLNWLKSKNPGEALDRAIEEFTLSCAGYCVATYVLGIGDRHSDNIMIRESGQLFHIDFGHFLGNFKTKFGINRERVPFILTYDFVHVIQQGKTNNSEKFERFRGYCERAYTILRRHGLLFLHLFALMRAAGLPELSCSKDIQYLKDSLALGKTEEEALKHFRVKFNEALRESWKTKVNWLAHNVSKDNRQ
Serine/threonine-protein kinase LATS2 (Homo sapiens), sequence (Q9NRM7 whole entry): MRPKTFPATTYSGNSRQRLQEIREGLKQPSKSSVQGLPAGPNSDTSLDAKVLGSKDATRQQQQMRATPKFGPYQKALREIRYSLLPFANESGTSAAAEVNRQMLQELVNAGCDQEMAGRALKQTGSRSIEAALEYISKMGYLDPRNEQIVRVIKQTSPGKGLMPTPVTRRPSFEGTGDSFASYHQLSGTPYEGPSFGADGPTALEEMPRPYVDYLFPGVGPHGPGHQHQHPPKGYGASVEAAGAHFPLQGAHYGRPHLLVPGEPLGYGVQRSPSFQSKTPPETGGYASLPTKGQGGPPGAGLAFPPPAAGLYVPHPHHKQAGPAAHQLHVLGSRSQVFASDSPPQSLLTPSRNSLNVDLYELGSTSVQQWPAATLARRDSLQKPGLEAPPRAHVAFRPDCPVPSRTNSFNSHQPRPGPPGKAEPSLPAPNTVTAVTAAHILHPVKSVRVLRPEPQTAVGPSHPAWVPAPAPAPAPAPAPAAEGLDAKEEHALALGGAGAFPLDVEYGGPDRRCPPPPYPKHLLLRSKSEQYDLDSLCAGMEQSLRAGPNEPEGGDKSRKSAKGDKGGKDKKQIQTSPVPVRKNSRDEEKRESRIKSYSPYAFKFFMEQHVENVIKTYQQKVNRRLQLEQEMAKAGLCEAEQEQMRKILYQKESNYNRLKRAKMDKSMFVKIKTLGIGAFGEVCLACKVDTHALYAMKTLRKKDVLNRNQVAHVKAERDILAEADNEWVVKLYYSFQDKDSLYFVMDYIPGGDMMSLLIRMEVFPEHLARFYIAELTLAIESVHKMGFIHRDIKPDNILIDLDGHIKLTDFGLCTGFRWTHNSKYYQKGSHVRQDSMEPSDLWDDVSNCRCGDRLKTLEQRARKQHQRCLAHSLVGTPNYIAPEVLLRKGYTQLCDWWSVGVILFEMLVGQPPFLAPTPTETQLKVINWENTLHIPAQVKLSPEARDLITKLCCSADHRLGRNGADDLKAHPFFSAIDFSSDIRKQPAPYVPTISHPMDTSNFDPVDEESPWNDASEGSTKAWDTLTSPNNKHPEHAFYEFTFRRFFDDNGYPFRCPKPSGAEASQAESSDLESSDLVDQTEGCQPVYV
Mast/stem cell growth factor receptor Kit (Homo sapiens), P10721 [D816V], sequence (P10721 whole entry D816V): as the sequence (P10721 whole entry) above, with D816V counted along it

## CC(=O)c1c(NS(C)(=O)=O)c2cc(-c3ccc(Cl)cc3)c(-c3ccc(Cl)cc3Cl)nc2n(C)c1=O [MRL-CB1-NC]
[1]
  residual activity: 91%
[2]
  residual activity: 100%
[3]
  residual activity: 89%
[4]
  residual activity: 100%
[5]
  residual activity: 100%
[6]
  residual activity: 100%
[7]
  residual activity: 93%
[8]
  residual activity: 88%
[9]
  residual activity: 95%
[10]
  residual activity: 100%
[11]
  residual activity: 100%
[12]
  residual activity: 73%
[13]
  residual activity: 88%
[14]
  residual activity: 100%
[15]
  residual activity: 94%
[16]
  residual activity: 100%
[17]
  residual activity: 100%
[18]
  residual activity: 100%
[19]
  residual activity: 100%
[20]
  residual activity: 100%
[21]
  residual activity: 84%
[22]
  residual activity: 83%
[23]
  residual activity: 100%
[24]
  inhibition: 47.2%
[25]
  residual activity: 100%
[26]
  residual activity: 78%
[27]
  residual activity: 95%
[28]
  residual activity: 100%
[29]
  residual activity: 92%
[30]
  residual activity: 100%
[31]
  residual activity: 100%
[32]
  residual activity: 91%
[33]
  residual activity: 97%
[34]
  residual activity: 97%
[35]
  residual activity: 83%
[36]
  residual activity: 89%
[37]
  residual activity: 97%
[38]
  residual activity: 100%
[39]
  residual activity: 97%
[40]
  residual activity: 100%
[41]
  residual activity: 87%
[42]
  residual activity: 100%
[43]
  residual activity: 89%
[44]
  residual activity: 81%
[45]
  residual activity: 75%

## CC(=O)Nc1c(C(C)=O)c(=O)n(C)c2nc(-c3ccc(Cl)cc3Cl)c(-c3ccc(Cl)cc3)cc12 [NAPHTHYRIDINONE]
[1]
  residual activity: 100%
[2]
  residual activity: 100%
[3]
  residual activity: 100%
[4]
  residual activity: 100%
[5]
  residual activity: 92%
[6]
  residual activity: 100%
[7]
  residual activity: 100%
[8]
  residual activity: 100%
[9]
  residual activity: 100%
[10]
  residual activity: 100%
[11]
  residual activity: 100%
[12]
  residual activity: 100%
[13]
  residual activity: 100%
[14]
  residual activity: 100%
[15]
  residual activity: 100%
[16]
  residual activity: 100%
[17]
  residual activity: 100%
[18]
  residual activity: 95%
[19]
  residual activity: 100%
[20]
  residual activity: 43%
[21]
  residual activity: 88%
[22]
  residual activity: 94%
[23]
  residual activity: 100%
[24]
  inhibition: 17.1%
[25]
  residual activity: 100%
[26]
  residual activity: 100%
[27]
  residual activity: 100%
[28]
  residual activity: 100%
[29]
  residual activity: 100%
[30]
  residual activity: 94%
[31]
  residual activity: 100%
[32]
  residual activity: 100%
[33]
  residual activity: 100%
[34]
  residual activity: 100%
[35]
  residual activity: 100%
[36]
  residual activity: 100%
[37]
  residual activity: 100%
[38]
  residual activity: 100%
[39]
  residual activity: 100%
[40]
  residual activity: 100%
[41]
  residual activity: 100%
[42]
  residual activity: 100%
[43]
  residual activity: 100%
[44]
  residual activity: 100%
[45]
  residual activity: 90%
